According to patent publication EP0095294A1, “Deoxyuridine compounds, methods for preparing them and their use in medicine” (priority 1982, dated 1983):
Structures can show the parent of a compound that is named as a salt. Where two headings read alike, the source gives them in different places.

Experiments:
Type in all cases: cell-based
[1] = tested on: Herpes simplex type 1 virus (HFEM strain); experiment: Plaque reduction test in virus-infected Vero cells
Method: (§1) Vero (African Green Monkey Kidney) cells were grown to confluence in 24 well multidishes, each well being 1.6cm in diameter. The cells were infected with Herpes simplex type 1 virus (HFEM strain) and overlaid with 0.5ml of 0.9% agarose (w/v) in maintenance medium. Test compounds prepared in maintenance medium in concentrations ranging from 100 to 0.03pg/ml in half-log dilution steps, were added in 0.5ml volume. The virus infected cultures were then incubated at 37° for 4 days before fixing in 4% formaldehyde solution and staining with carbolfuchsin.

in vitro [2] = conditions: african green monkey, vero cells
Method: as §1

in vitro [3] = conditions: african green monkey; minimum concentration of test compound which caused cytotoxicity; Vero cells, 4 days at 37°; highest concentration tested 100; read-out: MTD
[4] = tested on: Vero (African Green Monkey Kidney) cells; experiment: in vitro; conditions: minimum concentration of test compound which caused cytotoxicity; Vero cells, 4 days at 37°; highest concentration tested 100
Method: as §1

[5] = Human alphaherpesvirus 1, Vero, 96 h, read-out: PDD50, concentration causing 50% reduction in number of virus plaques, HSV-1 HFEM strain, 4 days at 37°
[6] = Human alphaherpesvirus 1, 96 h, concentration causing 50% reduction in number of virus plaques, HSV-1 HFEM strain, 4 days at 37°, molar units, read-out: PDD50 (the source's name)
[7] = Human alphaherpesvirus 1, 96 h, concentration causing 50% reduction in number of virus plaques, HSV-1 HFEM strain, 4 days at 37°, read-out: PDD50 (the source's name)
[8] = Human alphaherpesvirus 1, Vero, 96 h, read-out: PDD50, concentration causing 50% reduction in number of virus plaques, HSV-1 HFEM strain, 4 days at 37°, molar units

| Structure (SMILES) | IC50 [1, 5] [µg/mL] | IC50 [1, 6] [nM] | IC50 [1, 7] [µg/mL] | MCC at 96 h (in vitro [2]) [µg/mL] | MCC at 96 h (in vitro [3]) [µg/mL] | IC50 [1, 8] [nM] | MTD [4] [µg/mL] |
| --- | --- | --- | --- | --- | --- | --- | --- |
| CCOC(=O)OC[C@H]1O[C@@H](n2cc(/C=C/Br)c(=O)[nH]c2=O)C[C@@H]1OC(=O)CCC(=O)[O-].[Na+] | 6.3 |  |  |  |  |  |  |
| COC(=O)OC[C@H]1O[C@@H](n2cc(/C=C/Br)c(=O)[nH]c2=O)C[C@@H]1OC(=O)OC [Example 1, 5-(E-2-Bromovinyl)-2'-deoxy-3',5'-bis-0-methoxycarbonyl-uridine] |  | 11800 | 5.3 | > 100 |  |  |  |
| COC(=O)O[C@H]1C[C@H](n2cc(/C=C/Br)c(=O)[nH]c2=O)O[C@@H]1CO [Example 2, 5-(E-2-Bromovinyl)-2'-deoxy-3'-0-methoxycarbonyluridine] |  | 1900 | 0.74 | > 100 |  |  |  |
| COC(=O)OC[C@H]1O[C@@H](n2cc(/C=C/Br)c(=O)[nH]c2=O)C[C@@H]1O [Example 3, 5-(E-2-Bromovinyl)-2'-deoxy-5'-O-methoxycarbonyluridine] |  | 3800 | 1.5 | > 100 |  |  |  |
| CCOC(=O)OC[C@H]1O[C@@H](n2cc(/C=C/Br)c(=O)[nH]c2=O)C[C@@H]1OC(=O)OCC [Example 4, 5-(E-2-Bromovinyl)-2'-deoxy-3',5'-bis-0-ethoxycarbonyluridine] |  | 2300 | 1.1 | > 100 |  |  |  |
| CCOC(=O)OC[C@H]1O[C@@H](n2cc(/C=C/Br)c(=O)[nH]c2=O)C[C@@H]1O [Example 5, 5-(E-2-Bromovinyl)-2'-deoxy-5'-0-ethoxycarbonyluridine] |  | 700 | 0.28 | > 100 |  |  |  |
| CCOC(=O)O[C@H]1C[C@H](n2cc(/C=C/Br)c(=O)[nH]c2=O)O[C@@H]1CO [Example 6, 5-(E-2-Bromovinyl)-2'-deoxy-3'-0-ethoxycarbonyluridine] |  | 1100 | 0.43 | > 100 |  |  |  |
| CCOC(=O)n1c(=O)c(/C=C/Br)cn([C@H]2C[C@H](O)[C@@H](CO)O2)c1=O [Example 7, 5-(E-2-Bromovinyl)-2'-deoxy-3-ethoxycarbonyluridine] |  | 12300 | 5 |  | > 100 |  |  |
| CCCCC(=O)O[C@H]1C[C@H](n2cc(/C=C/Br)c(=O)n(C(=O)CCCC)c2=O)O[C@@H]1COC(=O)OCC [Example 8, 5-(E-2-Bromovinyl)-2'-deoxy-5'-0-ethoxycarbonyl-3,3'-0-bisvaleryluridine] |  | 3000 | 1.7 | > 100 |  |  |  |
| CCCCC(=O)O[C@H]1C[C@H](n2cc(/C=C/Br)c(=O)[nH]c2=O)O[C@@H]1COC(=O)OCC [Example 9, 5-(E-2-Bromovinyl)-2'-deoxy-5'-O-ethoxyarbonyl-3'-O-valeryluridine] |  | 3000 | 1.5 | > 100 |  |  |  |
| CCCCC(=O)n1c(=O)c(/C=C/Br)cn([C@H]2C[C@H](O)[C@@H](COC(=O)OCC)O2)c1=O [Example 10, 5-(E-2-Bromovinyl)-2'-deoxy-5'-0-ethoxycarbonyl-3-valeryl-uridine] |  | 6700 | 3.3 | > 100 |  |  |  |
| CCOC(=O)OC[C@H]1O[C@@H](n2cc(/C=C/Br)c(=O)[nH]c2=O)C[C@@H]1OP(=O)([O-])[O-].[Na+].[Na+] [Example 12, 5-(E-2-Bromovinyl)-2'-deoxy-5'-O-ethoxycarbonyluridine 3'-Phosphate Disodium Salt] | 12 |  |  |  |  | 23000 | >100 |
| CCOC(=O)OC[C@H]1O[C@@H](n2cc(/C=C/Br)c(=O)[nH]c2=O)C[C@@H]1OP(=O)(O)O [Example 13, 5-(E-2-Bromovinyl)-2'-deoxy-5'-0-ethoxycarbonyluridine 3'-Phosphate Monosodium Salt] |  | 7500 | 3.8 |  | > 100 |  |  |
| CCCOC(=O)OC[C@H]1O[C@@H](n2cc(/C=C/Br)c(=O)[nH]c2=O)C[C@@H]1O [Example 14, 5-(E-2-Bromovinyl)-2'-deoxy-5'-0-propoxycarbcnyluridine] |  | 900 | 0.39 | > 100 |  |  |  |
| CCCCOC(=O)OC[C@H]1O[C@@H](n2cc(/C=C/Br)c(=O)[nH]c2=O)C[C@@H]1O [Example 15, 5-(E-2-Bromovinyl)-5'-0-n-butoxycarbonyl-2'-deoxyuridine] |  | 600 | 0.25 | > 100 |  |  |  |
| CC(C)COC(=O)OC[C@H]1O[C@@H](n2cc(/C=C/Br)c(=O)[nH]c2=O)C[C@@H]1OC(=O)OCC(C)C [Example 16, 5-(E-2-Bromovinyl)-3',5'-bis-0-isobutoxycarbonyl-2'-deoxyuridine] |  | 800 | 0.44 | 100 |  |  |  |
| CC(C)COC(=O)OC[C@H]1O[C@@H](n2cc(/C=C/Br)c(=O)[nH]c2=O)C[C@@H]1O [Example 17, 5-(E-2-Bromovinyl)-5'-O-isobutoxycarbonyl-2'-deoxyuridine] |  | 500 | 0.22 | > 100 |  |  |  |
| CC(C)(C)OC(=O)OC[C@H]1O[C@@H](n2cc(/C=C/Br)c(=O)[nH]c2=O)C[C@@H]1O [Example 18, 5-(E-2-Bromovinyl)-5'-O-t-butoxycarbonyl-2'-deoxyuridine] |  | 700 | 0.28 | > 100 |  |  |  |
| CC(C)(C)OC(=O)OC[C@H]1O[C@@H](n2cc(/C=C/Br)c(=O)[nH]c2=O)C[C@@H]1OC(=O)OC(C)(C)C [Example 19, 5-(E-2-Bromovinyl)-3',5'-bis-O-t-butoxycarbonyl-2^1-deoxyuridine] |  | 3800 | 2 | > 100 |  |  |  |
| CC(C)(C)OC(=O)O[C@H]1C[C@H](n2cc(/C=C/Br)c(=O)[nH]c2=O)O[C@@H]1CO [Example 20, 5-(E-2-Bromovinyl)-3'-O-t-butoxycarbonyl-2^1-deoxyuridine] |  | 400 | 0.18 | > 100 |  |  |  |
| C=CCOC(=O)OC[C@H]1O[C@@H](n2cc(/C=C/Br)c(=O)[nH]c2=O)C[C@@H]1O [Example 21, 5'-0-Allyloxycarbonyl-5-(E-2-bromovinyl)-2'-deoxyuridine] |  | 1700 | 0.72 | > 100 |  |  |  |
| O=C(OCc1ccccc1)OC[C@H]1O[C@@H](n2cc(/C=C/Br)c(=O)[nH]c2=O)C[C@@H]1O [Example 22, 5'-O-Benzyloxycycarbonyl-5-(E-2-bromovinyl)-2'-deoxyuridine] |  | 100 | 0.05 | > 100 |  |  |  |
| O=C(OC[C@H]1O[C@@H](n2cc(/C=C/Br)c(=O)[nH]c2=O)C[C@@H]1O)Oc1ccccc1 [Example 23, 5-(E-2-Bromovinyl)-5'-0-phenoxycarbonyl-2'-deoxyuridine] |  | 400 | 0.18 | > 100 |  |  |  |
| O=C(OC[C@H]1O[C@@H](n2cc(/C=C/Br)c(=O)[nH]c2=O)C[C@@H]1O)Oc1ccc([N+](=O)[O-])cc1 [Example 24, 5-(E-2-Bromovinyl)-2'-deoxy-5'-O-(p-nitrophenoxycarbonyl)uridine] |  | 1200 | 0.6 | 100 |  |  |  |
| CC(C)OC(=O)OC[C@H]1O[C@@H](n2cc(/C=C/Br)c(=O)[nH]c2=O)C[C@@H]1O [Example 25, 5-(E-2-Bromovinyl)-2'-deoxy-5'-0-isopropoxycarbonyluridine] |  | 2100 | 0.88 | > 100 |  |  |  |
| O=C(OCCO)OC[C@H]1O[C@@H](n2cc(/C=C/Br)c(=O)[nH]c2=O)C[C@@H]1O [Example 26, 5-(E-2-Bromovinyl)-2'-deoxy-5'-0-(2-hydroxyethox^ycarbonyl)-uridine] |  | 1800 | 0.76 | > 100 |  |  |  |
| C=Cc1cn([C@H]2C[C@H](O)[C@@H](COC(=O)OCC)O2)c(=O)[nH]c1=O [Example 27, 2^1-Deoxy-5^1-O-ethoxycarbonyl-5-vinyluridine] |  | 4600 | 1.5 | > 100 |  |  |  |
| CCOC(=O)OC[C@H]1O[C@@H](n2cc(/C=C/Br)c(=O)[nH]c2=O)C[C@@H]1OC(=O)CCC(=O)[O-].[Na+] [Sodium Salt] |  |  |  |  | > 100 | 12000 |  |
